We go through one molecule from ChEMBL document CHEMBL1152468, “Fitness cost and impaired survival in penicillin-resistant Streptococcus gordonii isolates selected in the laboratory” (2008).

The subject of test [1] is Streptococcus gordonii. Briefly: Ratio of generation time for wild type Streptococcus gordonii to generation time for penicillin-resistant Streptococcus gordonii PR1_2evolved mutant at mid-logarithmic phase of growth. In kind it is functional.
Test [2] concerns Streptococcus gordonii. Briefly: Antimicrobial activity against penicillin-resistant Streptococcus gordonii PR1_2 mutant. Type of test: functional.
The test system of test [3] is Streptococcus gordonii. Description: Antimicrobial activity against wild type Streptococcus gordonii assessed as generation time at mid-logarithmic phase of growth. In kind it is functional.
Test [4] has as its system Streptococcus gordonii. Description: Antimicrobial activity against penicillin-resistant Streptococcus gordonii PR1_2evolved mutant co-cultured with wild type Streptococcus gordoni assessed as loss of viability at stationary phase of growth at 0.5 ug/mL after 70 hrs relative to wild type. Type of test: functional, organism-based.
The subject of test [5] is Streptococcus gordonii. Briefly: Ratio of generation time for wild type Streptococcus gordonii to generation time for penicillin-resistant Streptococcus gordonii PR1_2 mutant at mid-logarithmic phase of growth. In kind it is functional.
Test [6] has as its system Streptococcus gordonii. Briefly: Antimicrobial activity against penicillin-resistant Streptococcus gordonii PR1_2evolved mutant assessed as generation time at mid-logarithmic phase of growth. Type of test: functional.
Test [7] has as its system Streptococcus gordonii. Briefly: Antimicrobial activity against penicillin-resistant Streptococcus gordonii PR1_2 mutant assessed as generation time at mid-logarithmic phase of growth. Type of test: functional.
Test [8] has as its system Streptococcus gordonii. Description: Antimicrobial activity against wild type Streptococcus gordonii. In kind it is functional.
Test [9] relates to Streptococcus gordonii. Briefly: Antimicrobial activity against penicillin-resistant Streptococcus gordonii PR1_2 mutant assessed as logarithmic reduction in viability at stationary phase of growth after 70 hrs. In kind it is functional.
The subject of test [10] is Streptococcus gordonii. Briefly: Antimicrobial activity against penicillin-resistant Streptococcus gordonii PR1_2evolved mutant co-cultured with wild type Streptococcus gordoni assessed as loss of viability at stationary phase of growth at 0.5 ug/mL after 15 hrs. In kind it is functional, organism-based.
In test [11] the test system is Streptococcus gordonii. Briefly: Antimicrobial activity against wild type Streptococcus gordonii assessed as logarithmic reduction in viability at stationary phase of growth after 70 hrs. Type of test: functional.

Structures are written as SMILES. Converted amounts (≈) assume the structure as drawn. The source made the active and inactive calls.

On to `CC1(C)S[C@@H]2[C@H](NC(=O)Cc3ccccc3)C(=O)N2[C@H]1C(=O)O` [PENICILLIN G], for which the Ratio turned out to be 1.06 in the test with Streptococcus gordonii [1] and 0.8 with Streptococcus gordonii [5]. Besides, the MIC (commonly the smallest concentration in the dilution series that meets the test's criterion for growth inhibition) against Streptococcus gordonii [2] stood at 2 µg/mL (≈ 5.98 µM); against Streptococcus gordonii [8], 8 ng/mL (≈ 0.0239 µM). Further, the Activity in the test with Streptococcus gordonii [3] is on record as 48.4 min; with Streptococcus gordonii [6], 45 min; in the test on Streptococcus gordonii [7], 60.6 min; in the test on Streptococcus gordonii [9], >4 log10CFU/ml; with Streptococcus gordonii [11] it was 2 log10CFU/ml. Further, the outcome with Streptococcus gordonii [4] and in the test with Streptococcus gordonii [10] was Active.
